Data published in patent US12629350B2, “Transthyretin tetramer stabilizing agent, and preventing agent or progression suppressing agent for transthyretin amyloidosis” (KANEKA CORPORATION, priority 2020, dated 2026).

Biological target: T1, transthyretin tetramer (Homo sapiens, UniProt P02766)
T1 construct: from tissue; host or cells: human serum from three middle-aged and older persons
Test: Stabilization Test 1 of Transthyretin Tetramer (serum, urea denaturation, electrophoresis and Western blotting)
Type: biochemical
Conditions: glabridin alone added at concentrations up to 50 μM
Protocol: Serums were obtained from blood taken from three middle-aged and older persons. […] The resulting mixtures were incubated at 25° C. for 30 minutes, and then denatured with urea. Using these samples, the transthyretins (the tetramers, the dimers, and the monomers) in the serum were quantitated by electrophoresis and Western blotting. The stabilization effect was investigated using the ratio of the monomers (monomer) to the total amounts of the transthyretins (total) (monomer/total) and the ratio of the tetramers (tetramer) to the total amounts of the transthyretins (total) (tetramer/total). The analysis results of the monomer/total ratio are shown in the left of FIG. 1. The analysis results of the tetramer/total ratio are shown in the right of FIG. 1.

[1] = serum of three middle-aged and older persons, 25° C. 30 minutes, then denatured with urea

- ratio of the monomers to the total amounts of the transthyretins (monomer/total) [1]: did not change
- ratio of the tetramers to the total amounts of the transthyretins (tetramer/total) [1]: did not increase
- stabilization effect for the transthyretin (serum): not observed
Structure (SMILES): CC1(C)C=Cc2c(ccc3c2OC[C@@H](c2ccc(O)cc2O)C3)O1 [glabridin]
